These results are taken from patent US20240307353A1, “JAK1 PATHWAY INHIBITORS FOR THE TREATMENT OF ASTHMA” (Incyte Corporation, priority 2023, published 2024).

A value given as a limit tells only on which side of the number the result lay.

One test concerns the target JAK2 (a.a. 828-1132) (Homo sapiens (Human), UniProt O60674). The experiment in a line: In vitro JAK kinase assay (HTRF), JAK2 versus JAK1. Type of test: biochemical. Particulars: IC50 ratio, 1 mM ATP.
The target in test [1] is human JAK1 (a.a. 837-1142) (Homo sapiens, UniProt P23458). The experiment in a line: In vitro JAK kinase assay (HTRF), JAK1. Type of test: biochemical. The settings on record: 1 mM ATP.
Description: (§1) The catalytic activity of JAK1, JAK2 or JAK3 was assayed by measuring the phosphorylation of a biotinylated peptide. The phosphorylated peptide was detected by homogenous time resolved fluorescence (HTRF). […] Reactions were carried out at room temperature for 1 hour and then stopped with 20 μL 45 mM EDTA, 300 nM SA-APC, 6 nM Eu-Py20 in assay buffer (Perkin Elmer, Boston, MA). Binding to the Europium labeled antibody took place for 40 minutes and HTRF signal was measured on a Fusion plate reader (Perkin Elmer, Boston, MA).

JAK2 (a.a. 828-1132), sequence (O60674 828-1132): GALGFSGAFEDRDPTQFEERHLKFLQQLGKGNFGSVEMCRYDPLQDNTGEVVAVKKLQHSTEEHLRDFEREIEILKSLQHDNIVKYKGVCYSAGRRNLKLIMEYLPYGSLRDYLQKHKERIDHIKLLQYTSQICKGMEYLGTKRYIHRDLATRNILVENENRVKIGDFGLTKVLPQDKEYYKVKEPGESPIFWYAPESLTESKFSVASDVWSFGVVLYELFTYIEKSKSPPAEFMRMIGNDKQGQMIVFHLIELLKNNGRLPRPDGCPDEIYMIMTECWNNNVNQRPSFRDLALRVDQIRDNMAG
Description for JAK2 (a.a. 828-1132): as §1

In the case of `N#CC[C@]1(n2cc(-c3ncnc4[nH]ccc34)cn2)C[C@H](N2CCC(Oc3cc(CN4CCC[C@H]4CO)cc(C(F)(F)F)n3)CC2)C1` [Compound 12, {trans-3-(4-{[4-{[(2S)-2-(hydroxymethyl)pyrrolidin-1-yl]methyl}-6-(trifluoromethyl)pyridin-2-yl]oxy}piperidin-1-yl)-1-[4-(7H-pyrrolo[2,3-d]pyrimidin-4-yl)-1H-pyrazol-1-yl]cyclobutyl}acetonitrile], the JAK2/JAK1 at JAK2 (a.a. 828-1132) is >10. Moreover, in test [1], the IC50 is < 10 nM.
Consider `N#CC[C@]1(n2cc(-c3ncnc4[nH]ccc34)cn2)C[C@H](N2CCC(Oc3cc(CCO)cc(C(F)(F)F)n3)CC2)C1` [Compound 26, {trans-3-(4-{[4-(2-hydroxyethyl)-6-(trifluoromethyl)pyridin-2-yl]oxy}piperidin-1-yl)-1-[4-(7H-pyrrolo[2,3-d]pyrimidin-4-yl)-1H-pyrazol-1-yl]cyclobutyl}acetonitrile], for which the JAK2/JAK1 on JAK2 (a.a. 828-1132) is reported as >10. Further, the IC50 in test [1] is < 10 nM.
The corresponding values for `N#CCC1(n2cc(-c3ncnc4[nH]ccc34)cn2)CN(C2CCN(C(=O)c3ccnc(C(F)(F)F)c3F)CC2)C1` [Compound 4, {1-{1-[3-Fluoro-2-(trifluoromethyl)isonicotinoyl]piperidin-4-yl}-3-[4-(7H-pyrrolo[2,3-d]pyrimidin-4-yl)-1H-pyrazol-1-yl]azetidin-3-yl}acetonitrile] are >10 and < 10 nM.
For the molecule `C[C@@H](O)CNCc1cc(OC2CCN([C@H]3C[C@](CC#N)(n4cc(-c5ncnc6[nH]ccc56)cn4)C3)CC2)nc(C(F)(F)F)c1` [Compound 24, {trans-3-(4-{[4-({[(2R)-2-hydroxypropyl]amino}methyl)-6-(trifluoromethyl)pyridin-2-yl]oxy}piperidin-1-yl)-1-[4-(7H-pyrrolo[2,3-d]pyrimidin-4-yl)-1H-pyrazol-1-yl]cyclobutyl}acetonitrile], the JAK2/JAK1 on JAK2 (a.a. 828-1132) was >10. In addition, the IC50 in test [1] is < 10 nM.
In the same order, the values of `N#CCC1(n2cc(-c3ncnc4[nH]ccc34)cn2)CN([C@H]2CC[C@@H](Oc3cc(CCO)nc(C(F)(F)F)n3)CC2)C1` [Compound 18, {1-(cis-4-{[6-(2-hydroxyethyl)-2-(trifluoromethyl)pyrimidin-4-yl]oxy}cyclohexyl)-3-[4-(7H-pyrrolo[2,3-d]pyrimidin-4-yl)-1H-pyrazol-1-yl]azetidin-3-yl}acetonitrile] are >10 and < 10 nM.
The corresponding values for `N#CCC1(n2cc(-c3ncnc4[nH]ccc34)cn2)CN(C2CCN(C(=O)Nc3ccc(F)cc3C(F)(F)F)CC2)C1` [Compound 2, 4-{3-(Cyanomethyl)-3-[4-(7H-pyrrolo[2,3-d]pyrimidin-4-yl)-1H-pyrazol-1-yl]azetidin-1-yl}-N-[4-fluoro-2-(trifluoromethyl)phenyl]piperidine-1-carboxamide] are >10 and < 10 nM.
The corresponding values for `N#CC[C@]1(n2cc(-c3ncnc4[nH]ccc34)cn2)C[C@H](N2CCC(Oc3cc(CN4CC(O)C4)cc(C(F)(F)F)n3)CC2)C1` [Compound 11, {trans-3-(4-{[4-[(3-hydroxyazetidin-1-yl)methyl]-6-(trifluoromethyl)pyridin-2-yl]oxy}piperidin-1-yl)-1-[4-(7H-pyrrolo[2,3-d]pyrimidin-4-yl)-1H-pyrazol-1-yl]cyclobutyl}acetonitrile] are >10 and < 10 nM.
With `N#CCC1(n2cc(-c3ncnc4[nH]ccc34)cn2)CN(C2CCN(C(=O)c3ccnc(C(F)(F)F)n3)CC2)C1` [Compound 3, [3-[4-(7H-pyrrolo[2,3-d]pyrimidin-4-yl)-1H-pyrazol-1-yl]-1-(1-{[2-(trifluoromethyl)pyrimidin-4-yl]carbonyl}piperidin-4-yl)azetidin-3-yl]acetonitrile], the JAK2/JAK1 on JAK2 (a.a. 828-1132) is >10. Moreover, the IC50 in test [1] is < 10 nM.
The corresponding values for `CC(C)(O)c1cc(O[C@H]2CC[C@@H](N3CC(CC#N)(n4cc(-c5ncnc6[nH]ccc56)cn4)C3)CC2)nc(C(F)(F)F)c1` [Compound 20, {1-(cis-4-{[4-(1-hydroxy-1-methylethyl)-6-(trifluoromethyl)pyridin-2-yl]oxy}cyclohexyl)-3-[4-(7H-pyrrolo[2,3-d]pyrimidin-4-yl)-1H-pyrazol-1-yl]azetidin-3-yl}acetonitrile] are >10 and < 10 nM.
In the same order, the values of `N#CCC(CN1CCN(C(=O)c2ccc(C#N)cc2F)CC1)n1cc(-c2ncnc3[nH]ccc23)cn1` (stereo not drawn) [Compound 8, 4-[(4-{3-cyano-2-[4-(7H-pyrrolo[2,3-d]pyrimidin-4-yl)-1H-pyrazol-1-yl]propyl}piperazin-1-yl)carbonyl]-3-fluorobenzonitrile] are >10 and < 10 nM.
In the case of `N#CC[C@]1(n2cc(-c3ncnc4[nH]ccc34)cn2)C[C@H](N2CCN(C(=O)c3ccnc(C(F)(F)F)n3)CC2)C1` [Compound 10, [trans-1-[4-(7H-pyrrolo[2,3-d]pyrimidin-4-yl)-1H-pyrazol-1-yl]-3-(4-{[2-(trifluoromethyl)pyrimidin-4-yl]carbonyl}piperazin-1-yl)cyclobutyl]acetonitrile], the JAK2/JAK1 at JAK2 (a.a. 828-1132) is listed as >10. Besides, the IC50 in test [1] was < 10 nM.
For the molecule `N#CCC(C1CCN(c2cccc(Cl)n2)C1)n1cc(-c2ncnc3[nH]ccc23)cn1` (single isomer, unassigned) [Compound 6, 3-[1-(6-chloropyridin-2-yl)pyrrolidin-3-yl]-3-[4-(7H-pyrrolo[2,3-d]pyrimidin-4-yl)-1H-pyrazol-1-yl]propanenitrile], on JAK2 (a.a. 828-1132), the JAK2/JAK1 is on record as >10. The IC50 in test [1] was < 10 nM.
As for `N#CCC1(n2cc(-c3ncnc4[nH]ccc34)cn2)CN([C@H]2CC[C@@H](Oc3cc(CN4CC[C@H](O)C4)cc(C(F)(F)F)n3)CC2)C1` [Compound 22, {1-(cis-4-{[4-{[(3S)-3-hydroxypyrrolidin-1-yl]methyl}-6-(trifluoromethyl)pyridin-2-yl]oxy}cyclohexyl)-3-[4-(7H-pyrrolo[2,3-d]pyrimidin-4-yl)-1H-pyrazol-1-yl]azetidin-3-yl}acetonitrile], at JAK2 (a.a. 828-1132), the JAK2/JAK1 is given as >10. For the same molecule, in test [1], the IC50 is < 10 nM.
In the same order, the values of `CCNCc1cc(O[C@H]2CC[C@@H](N3CC(CC#N)(n4cc(-c5ncnc6[nH]ccc56)cn4)C3)CC2)nc(C(F)(F)F)c1` [Compound 19, {1-(cis-4-{[4-[(ethylamino)methyl]-6-(trifluoromethyl)pyridin-2-yl]oxy}cyclohexyl)-3-[4-(7H-pyrrolo[2,3-d]pyrimidin-4-yl)-1H-pyrazol-1-yl]azetidin-3-yl}acetonitrile] are >10 and < 10 nM.
In the same order, the values of `N#CCC1(n2cc(-c3ncnc4[nH]ccc34)cn2)CN([C@H]2CC[C@@H](Oc3cc(CN4CC[C@@H](O)C4)cc(C(F)(F)F)n3)CC2)C1` [Compound 21, {1-(cis-4-{[4-{[(3R)-3-hydroxypyrrolidin-1-yl]methyl}-6-(trifluoromethyl)pyridin-2-yl]oxy}cyclohexyl)-3-[4-(7H-pyrrolo[2,3-d]pyrimidin-4-yl)-1H-pyrazol-1-yl]azetidin-3-yl}acetonitrile] are >10 and < 10 nM.
The corresponding values for `C[C@H](NC(=O)c1cc(F)c(N2CC(CC#N)(n3cc(-c4ncnc5[nH]ccc45)cn3)C2)cc1F)C(F)(F)F` [Compound 16, 4-{3-(cyanomethyl)-3-[4-(7H-pyrrolo[2,3-d]pyrimidin-4-yl)-1H-pyrazol-1-yl]azetidin-1-yl}-2,5-difluoro-N-[(1S)-2,2,2-trifluoro-1-methylethyl]benzamide] are >10 and < 10 nM.
For the molecule `N#CCC(CN1CCN(C(=O)c2ccc(C#N)cc2F)CC1)n1ccc(-c2ncnc3[nH]ccc23)c1` (stereo not drawn) [Compound 9, 4-[(4-{3-cyano-2-[3-(7H-pyrrolo[2,3-d]pyrimidin-4-yl)-1H-pyrrol-1-yl]propyl}piperazin-1-yl)carbonyl]-3-fluorobenzonitrile], on JAK2 (a.a. 828-1132), the JAK2/JAK1 was >10. In test [1], the IC50 was < 10 nM.
The corresponding values for `N#CC[C@]1(n2cc(-c3ncnc4[nH]ccc34)cn2)C[C@H](N2CCC(Oc3cc(CN4CCC[C@@H]4CO)cc(C(F)(F)F)n3)CC2)C1` [Compound 13, {trans-3-(4-{[4-{[(2R)-2-(hydroxymethyl)pyrrolidin-1-yl]methyl}-6-(trifluoromethyl)pyridin-2-yl]oxy}piperidin-1-yl)-1-[4-(7H-pyrrolo[2,3-d]pyrimidin-4-yl)-1H-pyrazol-1-yl]cyclobutyl}acetonitrile] are >10 and < 10 nM.
For the molecule `C[C@@H](CO)NCc1cc(OC2CCN([C@H]3C[C@](CC#N)(n4cc(-c5ncnc6[nH]ccc56)cn4)C3)CC2)nc(C(F)(F)F)c1` [Compound 23, {trans-3-(4-{[4-({[(1S)-2-hydroxy-1-methylethyl]amino}methyl)-6-(trifluoromethyl)pyridin-2-yl]oxy}piperidin-1-yl)-1-[4-(7H-pyrrolo[2,3-d]pyrimidin-4-yl)-1H-pyrazol-1-yl]cyclobutyl}acetonitrile], the JAK2/JAK1 on JAK2 (a.a. 828-1132) is >10. Also, the IC50 in test [1] was < 10 nM.
The corresponding values for `C[C@H](O)CNCc1cc(OC2CCN([C@H]3C[C@](CC#N)(n4cc(-c5ncnc6[nH]ccc56)cn4)C3)CC2)nc(C(F)(F)F)c1` [Compound 25, {trans-3-(4-{[4-({[(2S)-2-hydroxypropyl]amino}methyl)-6-(trifluoromethyl)pyridin-2-yl]oxy}piperidin-1-yl)-1-[4-(7H-pyrrolo[2,3-d]pyrimidin-4-yl)-1H-pyrazol-1-yl]cyclobutyl}acetonitrile] are >10 and < 10 nM.
The corresponding values for `N#CCC(C1CCN(c2nc3cccnc3o2)C1)n1cc(-c2ncnc3[nH]ccc23)cn1` (stereo not drawn) [Compound 7, 3-(1-[1,3]oxazolo[5,4-b]pyridin-2-ylpyrrolidin-3-yl)-3-[4-(7H-pyrrolo[2,3-d]pyrimidin-4-yl)-1H-pyrazol-1-yl]propanenitrile] are >10 and < 10 nM.
